One assay deals with T1, PARP (Homo sapiens, UniProt P09874).
T1 construct: purchased Trevigen 4684-096-K HT (kit); 4684-096-01 (PARP enzyme)
The experiment in a line: PARP ELISA (ELISA-based colorimetric PARP/Apoptosis Assay kit, Trevigen). In kind it is biochemical. Particulars: pIC50=-log10 IC50, IC50 in mol/L; inhibition of PARP catalytic activity. The gist of the method:
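Quenched after 10 min catalysis by aspiration and four PBS/0.1% Triton X-100 washes. Poly(ADP-ribose) detected with mouse anti-PAR monoclonal antibody, goat anti-mouse IgG-HRP and HRP substrate; colorimetric signal proportional to PARP catalytic activity.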
For orientation: In an ELISA, binding on a coated surface is turned into a signal by an enzyme label.

In a further assay the test system is Jurkat cell line. The experiment in a line: PARP cellular chemopotentiation assay (MTS, with/without TMZ). The note with it: Chemopotentiation factor: ratio of EC50 values of Jurkat cells co-treated without and with 100 μM TMZ; 96 hours. In kind it is cell-based. In short, it runs like this:
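Jurkat cells, 10,000/well, pre-cultured 24 h, then treated 96 h with serial compound dilutions (0.5% DMSO) with or without 100 μM TMZ. Viability by MTS conversion (OD490), normalized to DMSO controls; EC50 from curve fits, PF50 = EC50 without TMZ / EC50 with TMZ.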

For assay [1], the target named is T2, catalytic domain of Human PARP (Homo sapiens, UniProt P09874).
T2 construct: The catalytic domain of Human PARP was cloned and prepared; made in house
T2 sequence (P09874 788-1014 limits assumed): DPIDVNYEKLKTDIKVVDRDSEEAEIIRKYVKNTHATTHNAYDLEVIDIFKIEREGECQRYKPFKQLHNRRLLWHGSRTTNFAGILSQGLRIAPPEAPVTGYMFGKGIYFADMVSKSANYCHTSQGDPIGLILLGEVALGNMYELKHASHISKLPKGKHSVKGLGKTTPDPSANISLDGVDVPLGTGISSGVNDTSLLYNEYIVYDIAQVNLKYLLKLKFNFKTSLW
The experiment in a line: Biacore surface plasmon resonance affinity assay. In kind it is binding. Particulars: pKD=-log10 KD, KD in mol/L; Biacore T100, 25° C.; read-out: pKD (converted). The gist of the method: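 Human PARP catalytic domain amine-coupled to CM5 chip; compounds run as 2-fold series in HBS-P with 1% DMSO, 0.5 mM TCEP, 5 mM MgCl2.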
In general terms: SPR reads the build-up and loss of mass on a sensor chip optically.

The values that follow come from patent publication US8669249B2, “Poly (ADP-ribose) polymerase (PARP) inhibitors” (Takeda Pharmaceutical Company Limited, priority 2009, dated 2014).

T1 sequence (P09874 whole entry): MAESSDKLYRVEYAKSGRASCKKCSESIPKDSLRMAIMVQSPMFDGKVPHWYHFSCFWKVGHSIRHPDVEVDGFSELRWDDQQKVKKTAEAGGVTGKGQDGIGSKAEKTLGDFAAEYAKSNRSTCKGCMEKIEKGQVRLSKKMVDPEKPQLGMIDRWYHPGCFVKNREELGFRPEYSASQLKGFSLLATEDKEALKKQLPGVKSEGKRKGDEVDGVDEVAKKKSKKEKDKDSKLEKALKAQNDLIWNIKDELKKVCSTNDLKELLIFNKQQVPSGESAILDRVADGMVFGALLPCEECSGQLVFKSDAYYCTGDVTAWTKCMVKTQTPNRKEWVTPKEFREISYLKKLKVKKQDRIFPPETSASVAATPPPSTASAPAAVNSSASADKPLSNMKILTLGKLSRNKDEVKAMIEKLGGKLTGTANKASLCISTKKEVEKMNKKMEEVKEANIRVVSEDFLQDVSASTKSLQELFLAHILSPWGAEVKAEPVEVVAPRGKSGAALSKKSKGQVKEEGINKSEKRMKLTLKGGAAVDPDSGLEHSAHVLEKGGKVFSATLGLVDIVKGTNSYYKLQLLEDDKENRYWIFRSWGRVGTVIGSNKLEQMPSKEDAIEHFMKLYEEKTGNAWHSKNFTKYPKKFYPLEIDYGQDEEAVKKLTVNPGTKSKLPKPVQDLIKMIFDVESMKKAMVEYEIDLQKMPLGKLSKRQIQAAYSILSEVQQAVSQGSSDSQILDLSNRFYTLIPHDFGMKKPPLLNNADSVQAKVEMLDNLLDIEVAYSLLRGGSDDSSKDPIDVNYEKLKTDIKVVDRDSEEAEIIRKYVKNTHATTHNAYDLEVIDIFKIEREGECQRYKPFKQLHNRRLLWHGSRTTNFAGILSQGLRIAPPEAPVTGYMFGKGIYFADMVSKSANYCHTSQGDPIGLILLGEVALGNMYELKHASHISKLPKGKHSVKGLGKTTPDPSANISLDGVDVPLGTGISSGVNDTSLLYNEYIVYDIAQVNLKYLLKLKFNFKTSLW

A word on the IC50: it is the midpoint of a concentration-inhibition curve. Higher therefore signals weaker potency. The molecule `CNC(=O)c1ccc(N2CCN(Cc3cc(F)c4c(c3)NC(=O)C(C)O4)CC2)cc1` (stereo not drawn) [Compound 271, 4-(4-((8-Fluoro-2-methyl-3-oxo-3,4-dihydro-2H-benzo[b][1,4]oxazin-6-yl)methyl)piperazin-1-yl)-N-methylbenzamide] gave a half-inhibitory concentration (IC50) at PARP of 0.0398 to 0.1 µM. Besides, the PF50 result with Jurkat cell line is reported as “≦0.9”. In addition, the Kd in assay [1] is no more than 0.01 µM.
The matching figures for `CNC(=O)c1ccc(N2CCN(Cc3cc(C)c4c(c3)NC(=O)C(C)O4)CC2)cc1` (stereo not drawn) [Compound 257, 4-(4-((2,8-Dimethyl-3-oxo-3,4-dihydro-2H-benzo[b][1,4]oxazin-6-yl)methyl)piperazin-1-yl)-N-methylbenzamide]: no more than 0.0316 µM, 2.0-9.9 and no more than 0.01 µM.
At PARP, `COc1cc(CN2CCN(c3ccc(C(=O)NC4CC4)cc3)CC2)cc2c1OC(C)C(=O)N2` (stereo not drawn) [Compound 163, N-Cyclopropyl-4-(4-((8-methoxy-2-methyl-3-oxo-3,4-dihydro-2H-benzo[b][1,4]oxazin-6-yl)methyl)piperazin-1-yl)benzamide] gave an IC50 of no more than 0.0316 µM. Further, the PF50 entry in the assay with Jurkat cell line was “≧10.0”. For the same molecule, in assay [1], the Kd was less than 0.0316 µM.
The matching figures for `CC(C)NC(=O)c1ccc(N2CCN(Cc3ccc4c(c3)NC(=O)C(C)O4)CC2)cc1` (stereo not drawn) [Compound 225, N-Isopropyl-4-(4-((2-methyl-3-oxo-3,4-dihydro-2H-benzo[b][1,4]oxazin-6-yl)methyl)piperazin-1-yl)benzamide]: no more than 0.0316 µM, “≦0.9” and no more than 0.01 µM.
In the same order, the values of `CNC(=O)c1ccc(N2CCN(Cc3ccc4c(c3)NC(=O)C(C)O4)CC2)cc1` (stereo not drawn) [Compound 223, N-Methyl-4-(4-((2-methyl-3-oxo-3,4-dihydro-2H-benzo[b][1,4]oxazin-6-yl)methyl)piperazin-1-yl)benzamide] are no more than 0.0316 µM, “≦0.9” and no more than 0.01 µM.
In the same order, the values of `CC1Oc2ccc(CN3CCN(c4ccc(C(=O)NCC5CC5)cn4)CC3)cc2NC1=O` (stereo not drawn) [Compound 234, N-(Cyclopropylmethyl)-6-(4-((2-methyl-3-oxo-3,4-dihydro-2H-benzo[b][1,4]oxazin-6-yl)methyl)piperazin-1-yl)nicotinamide] are 0.0398 to 0.1 µM, 1.0-1.9 and no more than 0.01 µM.
At PARP, `CC(C)NC(=O)c1ccc(N2CCN(Cc3ccc4c(c3)NC(=O)C(C)O4)CC2)nc1` (stereo not drawn) [Compound 238, N-Isopropyl-6-(4-((2-methyl-3-oxo-3,4-dihydro-2H-benzo[b][1,4]oxazin-6-yl)methyl)piperazin-1-yl)nicotinamide] gave an IC50 of 0.0398 to 0.1 µM. The PF50 in the assay on Jurkat cell line is 1.0-1.9. Also, in assay [1], the Kd is 0.0126 to 0.1 µM.
The matching figures for `CCNC(=O)c1ccc(N2CCN(Cc3cc4c(c(OC)c3)OC(C)C(=O)N4)CC2)cc1` (stereo not drawn) [Compound 162, N-Ethyl-4-(4-((8-methoxy-2-methyl-3-oxo-3,4-dihydro-2H-benzo[b][1,4]oxazin-6-yl)methyl)piperazin-1-yl)benzamide]: no more than 0.0316 µM, 2.0-9.9 and less than 0.0316 µM.
For `COC(=O)c1ccc(N2CCN(Cc3ccc4c(c3)NC(=O)C(C)O4)CC2)cc1` (stereo not drawn) [Compound 220, Methyl 4-(4-((2-methyl-3-oxo-3,4-dihydro-2H-benzo[b][1,4]oxazin-6-yl)methyl)piperazin-1-yl)benzoate], the IC50 on PARP was 0.0398 to 0.1 µM. In the assay on Jurkat cell line, the PF50 was 1.0-1.9. Also, the Kd in assay [1] was no more than 0.01 µM.
`CC1Oc2ccc(CN3CCN(c4ccc(C#N)cn4)CC3)cc2NC1=O` (stereo not drawn) [Compound 231, 6-(4-((2-Methyl-3-oxo-3,4-dihydro-2H-benzo[b][1,4]oxazin-6-yl)methyl)piperazin-1-yl)nicotinonitrile] showed a 50% inhibitory concentration (IC50) at PARP of no more than 0.0316 µM. In the assay with Jurkat cell line, the PF50 is reported as 1.0-1.9. Also, in assay [1], the Kd was no more than 0.01 µM.
On PARP, `COC(=O)c1ccc(C2CCN(Cc3ccc4c(c3)NC(=O)C(C)O4)CC2)cc1` (stereo not drawn) [Compound 214, Methyl 4-(1-((2-methyl-3-oxo-3,4-dihydro-2H-benzo[b][1,4]oxazin-6-yl)methyl)piperidin-4-yl)benzoate] had a concentration for half-maximal inhibition (IC50) of 0.0398 to 0.1 µM. Besides, the PF50 entry with Jurkat cell line was “≦0.9”. For the same molecule, the Kd in assay [1] is no more than 0.01 µM.
The matching figures for `Cc1cc(CN2CCN(c3ccc(C(=O)NC4CC4)cc3)CC2)cc2c1OC(C)C(=O)N2` (stereo not drawn) [Compound 259, N-Cyclopropyl-4-(4-((2,8-dimethyl-3-oxo-3,4-dihydro-2H-benzo[b][1,4]oxazin-6-yl)methyl)piperazin-1-yl)benzamide]: no more than 0.0316 µM, “≧10.0” and no more than 0.01 µM.
On to `CCC1Oc2ccc(CN3CCN(c4ccccc4O)CC3)cc2NC1=O` (stereo not drawn) [Compound 197, 2-Ethyl-6-((4-(2-hydroxyphenyl)piperazin-1-yl)methyl)-2H-benzo[b][1,4]oxazin-3(4H)-one], for which the IC50 against PARP is no less than 0.126 µM. Further, the PF50 with Jurkat cell line is given as 1.0-1.9. In addition, the Kd in assay [1] was no more than 0.01 µM.
As for `COC(=O)c1ccc(N2CCN(Cc3ccc4c(c3)NC(=O)C(C)O4)CC2)nc1` (stereo not drawn) [Compound 232, Methyl 6-(4-((2-methyl-3-oxo-3,4-dihydro-2H-benzo[b][1,4]oxazin-6-yl)methyl)piperazin-1-yl)nicotinate], at PARP, the IC50 is 0.0398 to 0.1 µM. Moreover, the PF50 in the assay on Jurkat cell line was 1.0-1.9. Moreover, in assay [1], the Kd was no more than 0.01 µM.
Molecule `CCOC(=O)c1ccc(N2CCN(Cc3ccc4c(c3)NC(=O)C(C)O4)CC2)cc1` (stereo not drawn) [Compound 217, Ethyl 4-(4-((2-methyl-3-oxo-3,4-dihydro-2H-benzo[b][1,4]oxazin-6-yl)methyl)piperazin-1-yl)benzoate] gave an IC50 at PARP of no less than 0.126 µM. In addition, in the assay on Jurkat cell line, the PF50 result is listed as “≦0.9”. The Kd in assay [1] was no more than 0.01 µM.
